Experimental data published in publication PMC4459817, “Vasculotide reduces endothelial permeability and tumor cell extravasation in the absence of binding to or agonistic activation of Tie2” (EMBO Molecular Medicine, 2015).

Test system: Tie2 in HUVECs
Assay: in vitro Tie2 phosphorylation (immunoprecipitation/immunoblot), HUVEC
Assay type: cell-based, human
Details: Ang1 15–400 ng/mL (0.05–1.43 nM), VT 5–100 ng/mL (0.36–7.1 nM), 10, 15 or 45 min, with or without starvation
Text: Figure 7 In vitro Vasculotide vs. Ang1 stimulations: effects on Tie2 receptor phosphorylation in primary endothelial cells—HUVECs (A-E) and HMVEC-DBls (F) • A–F Primary human umbilical vein endothelial cells (HUVECs) or primary human dermal microvascular endothelial cells (HMVEC-DBls) were stimulated at 80% confluency with Vasculotide (treatment), Ang1 (positive control; ligand of Tie2), PBS (vehicle control), or VEGF (negative control; non-ligand of Tie2). Tie2 was immunoprecipitated from cell lysates and immunoblotted for total Tie2 or phosphotyrosine. […] Source data are available online for this figure. […]
Nodule areas were then […]
unit converted (to μm2) and normalized to total lung section area (including air spaces) using ROI measurements from ImageJ software (NIH).
7. Histological assessment of primary tumor viability and hypoxia
5-μm thick sections of PFA-fixed paraffin-embedded mammary fat pad tumors were subjected to: (i) standard hematoxylin and eosin (H&E) staining to visualize viable vs. necrotic regions; or (ii) standard IHC staining with a goat anti-human carbonic anhydrase IX (CAIX or CA9) antibody (R&D Systems AF2188, 1:80 dilution) plus hematoxylin counterstain to visualize hypoxic regions. […]
IHC staining for CAIX further marks a hypoxic band at the edge of the viability rim bordering the necrotic core – the thickness of this hypoxic edge was averaged over 12 measurements spaced 30o apart (see Fig. 5E).
8. Western immunoblotting for total or phosphorylated Tie2
Cultured ECs and TCs were lysed in RIPA lysis buffer as previously described (Bogdanovic et al, 2006).
Lung/ liver/ kidney tissues, which had been snap-frozen in liquid nitrogen once harvested from mice, were homogenized in RIPA lysis buffer (50 mM Tris-HCl pH 7.5, 150 mM NaCl, 1% Igepal, 0.5% sodium deoxycholate, 0.1% SDS, 1 mM Na3VO4 and protease inhibitors) at 4 °C. […]
Semi-quantitative densitometry analysis of immunoblots was performed using the ChemiGenius2 bioimaging system and GeneSnap/GeneTools software (Syngene). […]

Molecule	Tie2 phosphorylation	Tie2 phosphorylation (listed as VT)
CHHHRHSF [Vasculotide, 4-armed maleimide-functionalized polyethylene glycol (PEG) backbone to link together four cysteine-capped T7 peptides, that is, CHHHRHSF]	did not lead to increases in the pTie2/Tie2 ratio	did not lead to any appreciable induction of Tie2 phosphorylation
recombinant human Ang1 (rhAng1) (ligand, UniProt Q15389 16-498, looked up, angiopoietin-1, human, recombinant; also called angiopoietin-1; source: bought: R&D Systems (named for the Boyden chamber experiments)) HIGCSNQRRSPENSGRRYNRIQHGQCAYTFILPEHDGNCRESTTDQYNTNALQRDAPHVEPDFSSQKLQHLEHVMENYTQWLQKLENYIVENMKSEMAQIQQNAVQNHTATMLEIGTSLLSQTAEQTRKLTDVETQVLNQTSRLEIQLLENSLSTYKLEKQLLQQTNEILKIHEKNSLLEHKILEMEGKHKEELDTLKEEKENLQGLVTRQTYIIQELEKQLNRATTNNSVLQKQQLELMDTVHNLVNLCTKEGVLLKGGKREEEKPFRDCADVYQAGFNKSGIYTIYINNMPEPKKVFCNMDVNGGGWTVIQHREDGSLDFQRGWKEYKMGFGNPSGEYWLGNEFIFAITSQRQYMLRIELMDWEGNRAYSQYDRFHIGNEKQNYRLYLKGHTGTAGKQSSLILHGADFSTKDADNDNCMCKCALMLTGGWWFDACGPSNLNGMFYTAGQNHGKLNGIKWHYFKGPSYSLRSTTMMIRPLDF	strongly and consistently activated Tie2 phosphorylation	–
